For one assay, the target named is p300 (Homo sapiens, UniProt Q09472). The assay is described as follows: […]acetyl-CoA nucleosome acetyltransferase assay. It is filed as biochemical.
Another assay has as its target CBP (Homo sapiens, UniProt Q92793). Put plainly: H3K18ac Western blot of nucleosome acetylation by purified CBP. It counts as biochemical. (In general: Immunoblotting shows a protein as a band on a membrane.)

The results in this text go back to paper PMC5007619 (Biochemistry, 2016).

Chain of p300 (Q09472 2-2414): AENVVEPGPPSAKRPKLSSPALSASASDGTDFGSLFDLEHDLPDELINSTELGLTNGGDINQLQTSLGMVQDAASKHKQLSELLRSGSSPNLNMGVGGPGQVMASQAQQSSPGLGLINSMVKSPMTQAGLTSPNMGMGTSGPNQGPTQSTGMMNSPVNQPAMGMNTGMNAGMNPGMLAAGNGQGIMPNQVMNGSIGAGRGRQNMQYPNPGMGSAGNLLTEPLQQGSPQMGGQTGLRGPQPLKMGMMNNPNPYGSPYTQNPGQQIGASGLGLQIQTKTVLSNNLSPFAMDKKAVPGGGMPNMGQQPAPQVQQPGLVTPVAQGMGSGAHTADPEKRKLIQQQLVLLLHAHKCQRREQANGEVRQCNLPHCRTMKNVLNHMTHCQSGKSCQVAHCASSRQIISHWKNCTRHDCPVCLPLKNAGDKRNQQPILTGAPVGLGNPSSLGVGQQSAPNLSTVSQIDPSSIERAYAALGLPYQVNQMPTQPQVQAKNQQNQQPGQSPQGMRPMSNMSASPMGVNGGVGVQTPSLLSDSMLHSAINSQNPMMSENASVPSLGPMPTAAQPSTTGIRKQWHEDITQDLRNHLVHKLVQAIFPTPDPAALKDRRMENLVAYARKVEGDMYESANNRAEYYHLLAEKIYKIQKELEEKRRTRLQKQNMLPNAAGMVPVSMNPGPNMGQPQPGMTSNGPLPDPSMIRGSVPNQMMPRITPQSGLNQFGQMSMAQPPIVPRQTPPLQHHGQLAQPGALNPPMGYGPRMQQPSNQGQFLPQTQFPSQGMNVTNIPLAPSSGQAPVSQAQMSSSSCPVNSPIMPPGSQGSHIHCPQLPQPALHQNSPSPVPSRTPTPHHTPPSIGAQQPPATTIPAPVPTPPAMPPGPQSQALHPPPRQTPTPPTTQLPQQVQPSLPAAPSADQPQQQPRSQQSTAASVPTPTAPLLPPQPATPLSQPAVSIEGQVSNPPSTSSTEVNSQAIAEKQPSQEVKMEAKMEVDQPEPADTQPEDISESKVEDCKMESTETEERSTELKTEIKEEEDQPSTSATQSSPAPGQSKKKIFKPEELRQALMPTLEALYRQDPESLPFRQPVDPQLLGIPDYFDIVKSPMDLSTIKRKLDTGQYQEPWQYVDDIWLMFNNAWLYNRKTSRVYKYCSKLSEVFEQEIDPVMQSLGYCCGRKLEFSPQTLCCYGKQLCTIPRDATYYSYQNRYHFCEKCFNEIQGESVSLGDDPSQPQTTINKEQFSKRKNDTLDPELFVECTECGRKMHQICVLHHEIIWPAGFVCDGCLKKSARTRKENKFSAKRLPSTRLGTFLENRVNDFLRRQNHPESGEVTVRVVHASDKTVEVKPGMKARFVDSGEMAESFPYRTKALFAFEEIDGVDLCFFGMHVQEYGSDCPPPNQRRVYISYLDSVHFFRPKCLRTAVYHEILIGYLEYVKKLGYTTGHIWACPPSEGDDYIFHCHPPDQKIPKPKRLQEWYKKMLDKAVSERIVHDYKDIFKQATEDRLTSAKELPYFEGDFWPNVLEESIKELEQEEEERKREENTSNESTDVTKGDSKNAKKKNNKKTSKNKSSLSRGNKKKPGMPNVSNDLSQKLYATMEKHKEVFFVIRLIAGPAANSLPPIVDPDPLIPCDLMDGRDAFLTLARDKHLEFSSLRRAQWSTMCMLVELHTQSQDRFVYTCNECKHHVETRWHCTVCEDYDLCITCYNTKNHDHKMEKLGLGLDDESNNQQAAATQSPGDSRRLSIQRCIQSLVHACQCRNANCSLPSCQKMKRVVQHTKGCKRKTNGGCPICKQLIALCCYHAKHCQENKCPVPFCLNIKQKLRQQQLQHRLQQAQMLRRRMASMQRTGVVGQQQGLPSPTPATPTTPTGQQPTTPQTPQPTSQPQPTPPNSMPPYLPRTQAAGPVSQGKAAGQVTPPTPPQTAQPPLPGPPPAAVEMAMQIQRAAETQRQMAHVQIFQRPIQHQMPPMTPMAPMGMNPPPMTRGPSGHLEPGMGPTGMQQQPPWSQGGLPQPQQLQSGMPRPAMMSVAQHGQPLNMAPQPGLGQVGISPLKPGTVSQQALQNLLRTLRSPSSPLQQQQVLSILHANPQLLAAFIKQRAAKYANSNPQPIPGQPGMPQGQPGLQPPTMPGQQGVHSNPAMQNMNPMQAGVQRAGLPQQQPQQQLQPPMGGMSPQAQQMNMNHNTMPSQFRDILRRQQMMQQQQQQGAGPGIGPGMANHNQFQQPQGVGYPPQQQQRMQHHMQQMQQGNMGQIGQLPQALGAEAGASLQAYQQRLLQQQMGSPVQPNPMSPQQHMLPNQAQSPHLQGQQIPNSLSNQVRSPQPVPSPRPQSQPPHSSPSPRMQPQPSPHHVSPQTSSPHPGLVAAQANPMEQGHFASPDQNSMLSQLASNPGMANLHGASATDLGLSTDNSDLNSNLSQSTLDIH
Chain of CBP (Q92793 2-2442): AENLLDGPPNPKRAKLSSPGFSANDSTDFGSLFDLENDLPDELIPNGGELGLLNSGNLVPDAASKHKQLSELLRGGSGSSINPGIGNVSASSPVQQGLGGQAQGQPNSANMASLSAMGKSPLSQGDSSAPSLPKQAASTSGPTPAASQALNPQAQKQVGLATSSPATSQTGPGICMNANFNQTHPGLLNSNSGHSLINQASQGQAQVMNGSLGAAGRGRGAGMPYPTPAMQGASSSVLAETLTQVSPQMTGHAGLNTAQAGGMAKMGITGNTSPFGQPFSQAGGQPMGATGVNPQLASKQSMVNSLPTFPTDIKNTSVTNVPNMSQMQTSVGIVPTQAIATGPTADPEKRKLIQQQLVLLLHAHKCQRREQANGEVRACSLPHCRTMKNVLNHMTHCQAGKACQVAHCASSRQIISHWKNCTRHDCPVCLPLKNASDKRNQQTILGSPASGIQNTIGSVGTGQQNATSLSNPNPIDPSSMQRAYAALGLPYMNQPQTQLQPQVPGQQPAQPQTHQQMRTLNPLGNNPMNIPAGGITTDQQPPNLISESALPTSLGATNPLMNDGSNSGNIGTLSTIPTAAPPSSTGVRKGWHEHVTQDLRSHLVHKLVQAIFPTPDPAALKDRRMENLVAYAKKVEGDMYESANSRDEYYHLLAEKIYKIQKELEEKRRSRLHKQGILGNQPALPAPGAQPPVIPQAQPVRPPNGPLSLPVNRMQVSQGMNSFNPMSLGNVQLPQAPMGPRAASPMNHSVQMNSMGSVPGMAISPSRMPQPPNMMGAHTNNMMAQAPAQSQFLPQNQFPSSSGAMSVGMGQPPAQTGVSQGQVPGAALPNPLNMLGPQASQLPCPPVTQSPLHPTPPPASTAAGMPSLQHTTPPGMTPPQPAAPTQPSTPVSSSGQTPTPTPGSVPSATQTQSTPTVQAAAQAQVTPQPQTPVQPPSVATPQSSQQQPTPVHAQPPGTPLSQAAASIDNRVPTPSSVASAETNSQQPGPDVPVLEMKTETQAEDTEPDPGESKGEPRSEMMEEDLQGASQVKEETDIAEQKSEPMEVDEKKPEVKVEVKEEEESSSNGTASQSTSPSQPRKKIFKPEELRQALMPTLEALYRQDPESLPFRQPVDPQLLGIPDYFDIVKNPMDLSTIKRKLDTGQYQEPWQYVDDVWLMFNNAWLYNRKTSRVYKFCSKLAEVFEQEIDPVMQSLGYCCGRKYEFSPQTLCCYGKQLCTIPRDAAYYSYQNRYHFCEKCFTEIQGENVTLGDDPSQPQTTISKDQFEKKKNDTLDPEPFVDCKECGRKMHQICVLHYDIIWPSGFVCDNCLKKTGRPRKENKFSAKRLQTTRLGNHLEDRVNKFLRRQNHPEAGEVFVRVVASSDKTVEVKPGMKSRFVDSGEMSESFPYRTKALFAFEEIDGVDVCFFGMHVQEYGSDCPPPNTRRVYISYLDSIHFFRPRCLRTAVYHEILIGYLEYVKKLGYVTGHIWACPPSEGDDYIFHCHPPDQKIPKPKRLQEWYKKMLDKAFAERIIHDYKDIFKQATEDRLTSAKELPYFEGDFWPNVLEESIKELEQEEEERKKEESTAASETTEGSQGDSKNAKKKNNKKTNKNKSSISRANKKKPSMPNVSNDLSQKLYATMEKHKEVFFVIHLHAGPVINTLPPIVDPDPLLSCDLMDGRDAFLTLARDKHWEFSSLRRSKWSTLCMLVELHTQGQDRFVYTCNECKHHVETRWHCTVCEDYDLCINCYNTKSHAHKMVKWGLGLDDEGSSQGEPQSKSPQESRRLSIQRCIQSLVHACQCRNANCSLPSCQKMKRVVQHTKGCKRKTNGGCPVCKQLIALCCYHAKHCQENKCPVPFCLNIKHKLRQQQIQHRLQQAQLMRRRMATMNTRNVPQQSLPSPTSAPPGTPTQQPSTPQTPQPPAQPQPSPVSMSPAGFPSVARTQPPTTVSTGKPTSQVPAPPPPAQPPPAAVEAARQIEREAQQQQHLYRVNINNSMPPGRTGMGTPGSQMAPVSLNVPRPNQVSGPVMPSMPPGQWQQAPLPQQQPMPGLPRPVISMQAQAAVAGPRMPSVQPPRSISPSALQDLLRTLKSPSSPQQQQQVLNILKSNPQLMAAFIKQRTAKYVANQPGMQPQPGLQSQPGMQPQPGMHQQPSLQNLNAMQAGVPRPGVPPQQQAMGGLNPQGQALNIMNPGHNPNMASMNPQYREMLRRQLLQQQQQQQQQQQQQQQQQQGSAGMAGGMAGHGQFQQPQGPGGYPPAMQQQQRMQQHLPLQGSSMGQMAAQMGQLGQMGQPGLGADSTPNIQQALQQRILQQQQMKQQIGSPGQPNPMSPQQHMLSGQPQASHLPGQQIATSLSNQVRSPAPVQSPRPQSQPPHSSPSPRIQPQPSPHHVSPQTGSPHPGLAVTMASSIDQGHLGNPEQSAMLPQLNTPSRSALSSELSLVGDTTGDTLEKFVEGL

Broadly, the EC50 is the concentration needed to bring the measured effect to its halfway point. Lower therefore signals an effect from little substance. Take `CCC(=O)N1CCOc2c(cc(-c3ccc(OC)c(OC)c3)cc2OC[C@H]2CCCN(C)C2)C1` [I-CBP112, 1-[7-(3,4-dimethoxyphenyl)-9-{[(3S)-1-methylpiperidin-3-yl]-methoxy}-2,3,4,5-tetrahydro-1,4-benzoxazepin-4-yl]propan-1-one]: the EC50 at p300 was 11 ± 3 µM; at CBP, roughly 2 µM.
